One series relates to MDA-MB-361. The series is described as follows: Antiproliferative activity against human MDA-MB-361 cells assessed as inhibition of cell growth measured after 10 days by cell titre glo luminescence assay. Format: functional, cell-based. As to conditions: time 10.0 day.
A short description of series [1]: Clearance in ICR mouse at 2 mg/kg, iv measured up to 24 hrs by LC/MS/MS analysis. Format: ADME, organism-based. As to conditions: in vivo.
The next series has as its system BT-474. Put plainly: Antiproliferative activity against human BT-474 cells assessed as inhibition of cell growth measured after 7 days by cell titre glo luminescence assay. Format: functional, cell-based. The settings on record: time 7.0 day.
Series [2] can be described thus: Ratio of drug concentration in rat brain to plasma at 20 mg/kg, po measured after 2 hrs.
Another series deals with Estrogen receptor (Homo sapiens, UniProt P03372, D538G). The series is described as follows: Antagonist activity at ERalpha D538G mutant degradation in human SK-BR-3 cells incubated for 24 hrs in presence of beta-estradiol by luciferase gene assay. Format: cell-based.
Estrogen receptor, sequence (P03372 whole entry D538G): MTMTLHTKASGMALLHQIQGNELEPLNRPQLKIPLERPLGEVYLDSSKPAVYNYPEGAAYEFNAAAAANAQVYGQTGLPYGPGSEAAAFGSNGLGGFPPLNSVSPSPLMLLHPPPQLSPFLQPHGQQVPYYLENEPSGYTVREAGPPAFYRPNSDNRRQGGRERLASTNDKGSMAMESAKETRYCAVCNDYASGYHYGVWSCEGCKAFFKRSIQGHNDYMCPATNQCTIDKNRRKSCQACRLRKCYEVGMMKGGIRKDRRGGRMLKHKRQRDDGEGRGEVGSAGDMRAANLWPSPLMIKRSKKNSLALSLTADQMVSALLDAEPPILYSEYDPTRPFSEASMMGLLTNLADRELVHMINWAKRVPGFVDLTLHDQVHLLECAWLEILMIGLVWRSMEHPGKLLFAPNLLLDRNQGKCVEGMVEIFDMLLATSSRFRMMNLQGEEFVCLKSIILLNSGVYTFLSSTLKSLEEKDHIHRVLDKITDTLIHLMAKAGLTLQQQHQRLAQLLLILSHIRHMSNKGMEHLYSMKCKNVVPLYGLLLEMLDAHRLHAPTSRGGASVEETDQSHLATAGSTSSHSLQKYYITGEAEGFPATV
Series [3] is described as follows: Drug concentration in rat plasma at 20 mg/kg, po measured after 2 hrs. Format: ADME, organism-based.
Series [4] deals with T1, Estrogen receptor (Homo sapiens) (UniProt P03372).
T1 sequence (whole entry): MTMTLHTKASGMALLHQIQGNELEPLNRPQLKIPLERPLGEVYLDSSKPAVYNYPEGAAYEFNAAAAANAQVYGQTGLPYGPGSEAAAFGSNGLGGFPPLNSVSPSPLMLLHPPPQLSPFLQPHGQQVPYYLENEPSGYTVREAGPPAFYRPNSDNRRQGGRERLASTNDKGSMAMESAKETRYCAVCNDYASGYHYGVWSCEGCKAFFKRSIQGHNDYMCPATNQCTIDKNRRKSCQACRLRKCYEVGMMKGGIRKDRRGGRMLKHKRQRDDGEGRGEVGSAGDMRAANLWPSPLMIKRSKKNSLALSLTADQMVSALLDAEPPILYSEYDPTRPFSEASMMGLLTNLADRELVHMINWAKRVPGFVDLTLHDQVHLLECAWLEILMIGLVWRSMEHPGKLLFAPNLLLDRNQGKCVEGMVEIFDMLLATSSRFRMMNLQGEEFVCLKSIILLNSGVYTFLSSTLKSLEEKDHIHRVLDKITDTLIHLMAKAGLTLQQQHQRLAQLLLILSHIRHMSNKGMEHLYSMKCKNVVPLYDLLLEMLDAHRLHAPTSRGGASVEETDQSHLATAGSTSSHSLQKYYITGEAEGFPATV
Put plainly: Induction of ERalpha degradation in human MCF7 cells at 1 nM by Western blot analysis. Format: cell-based. The settings on record: time 0.5-24 hrs, TDE = time-dependent effect. On the technique in general: In western blotting, separated proteins are transferred to a membrane and probed.

The nature of series [5]: AUC (0 to t) in ICR mouse at 2 mg/kg, iv measured up to 24 hrs by LC/MS/MS analysis. As to conditions: in vivo. Also noted: dose 2 mg/kg, time < 24 hrs, route iv. Format: ADME, organism-based.
A short description of series [6]: Tmax in ICR mouse at 5 mg/kg, po measured up to 24 hrs by LC/MS/MS analysis. Format: ADME, organism-based. As to conditions: in vivo.
Series [7] is described as follows: Cmax in ICR mouse at 2 mg/kg, iv measured up to 24 hrs by LC/MS/MS analysis. Format: ADME, organism-based. Also noted: dose 2 mg/kg, time < 24 hrs, route iv. As to conditions: in vivo.
Series [8] is described as follows: AUC (0 to t) in ICR mouse at 5 mg/kg, po measured up to 24 hrs by LC/MS/MS analysis. Format: ADME, organism-based. Also noted: time < 24 hrs, dose 5 mg/kg, route po. The settings on record: in vivo.
Series [9] can be described thus: Drug concentration in rat ovary at 20 mg/kg, po measured after 2 hrs. Format: ADME, organism-based, Female gonad. The settings on record: female, read-out: Ct.
Series [10] concerns the target T1, Estrogen receptor (Homo sapiens). Put plainly: Induction of ERalpha degradation in human MDA-MB-361 cells incubated 24 hrs by Western blot analysis. Format: cell-based. The settings on record: dose 0.1-1000 nM, DDE = dose-dependent effect.
Series [11] can be described thus: Drug concentration in rat liver at 20 mg/kg, po measured after 2 hrs. Format: ADME, organism-based. As to conditions: read-out: Ct.
Series [12] can be described thus: Oral bioavailability in ICR mouse at 5 mg/kg measured up to 24 hrs by LC/MS/MS analysis. Format: ADME, organism-based. As to conditions: in vivo.

The results in this text go back to ChEMBL document CHEMBL5154828 (J Med Chem, 2022).

The structures appear in SMILES notation. Activity calls are given as the source filed them. No cut-off for these calls is given here.

`CC(F)(F)c1cc(Cl)ccc1-c1sc2c(ccc3[nH]ncc32)c1Oc1ccc(OC2CN(CCCF)C2)cc1`: the outcome with MDA-MB-361 and in the series on BT-474 was Active. In series [1], this compound yielded a clearance of 7 mL/min/kg. Moreover, the partition ratio (Kp) at 2 h in series [2] turned out to be 0.7. Also, the half-maximal inhibitory concentration (IC50) at Estrogen receptor amounted to 16.1 nM. The figures for the concentration at 2 h in [3], in series [9] and in [11] were 609 ng/mL, 4420 ng/mL and 212000 ng/mL, respectively. Moreover, the results for the Activity entry in series [4] and in series [10] were “Tde” and “Dde”, respectively. Besides, the AUC(0-t) at 24 h in series [5] came to 4630 ng·h/mL; in series [8] it was 7710 ng·h/mL. Moreover, the Tmax in series [6] was found to be 2.7 h. The maximum concentration (Cmax) in series [7] turned out to be 764 ng/mL. Moreover, in [12], the bioavailability was 67%.

As usually defined, the clearance is a measure of how efficiently the substance is removed, as volume per time. Read a low clearance as inefficient removal. Broadly, the Kp is the ratio of the level in a tissue or fluid to that in plasma or blood. The term IC50 denotes the concentration at which inhibition is half-maximal. For orientation: AUC(0-t) means the area under the concentration-time curve up to a stated or last time point. Lower therefore signals less exposure. As a reminder, the Tmax is the time from dosing to the highest level. The term Cmax denotes the maximum level reached in the sampled fluid or tissue. A word on the bioavailability: it is the share of a dose that reaches the circulation, judged against a reference dose that is usually intravenous. Read a high bioavailability as much systemic uptake.
